Assay results published in publication PMC12150632, “Chalcones inhibit firefly bioluminescence dependent on A and B-ring substitution pattern – a structure-activity study combined with molecular docking” (Journal of Enzyme Inhibition and Medicinal Chemistry, 2025).

Target: T1, firefly luciferase (FLuc) (Photinus pyralis, UniProt P08659)
T1 construct: purchased Sigma-Aldrich; host or cells: E. coli
Experiment: Inhibition assay of luciferase (purified recombinant enzyme, bioluminescence readout)
Assay type: biochemical
Conditions: n = 3; for IC50: sigmoidal fit, concentration series 100 µM to 13 nM and 300 µM to 0.41 nM; for Inhibition (%) of FLuc: compound concentration 10 µM; for Inhibition (%) of FLuc / inhibition at 10 µM: relative to DMSO vehicle control; for inhibition at 10 µM: read-out: Inhibition (%) of FLuc, compound concentration 10 µM
Method: 25 µL of luciferase protein (c = 0.6 µg/mL, Sigma-Aldrich, recombinant expressed in E.coli) in Trisbuffer (10 mM Tris, 10 mM KCl, 1 mM EGTA, 30% glycerol) pH7.4 were added to each well of a white 96 well plate (Brand). The compounds were added in 1 µL DMSO at various concentrations. After incubation of the enzyme with the compounds for 10 min at room temperature, 80 µL of FLuc buffer (25 mM glycylglycin, 4 mM EGTA, 15 mM MgSO4, 15 mM PPB) was added and the light signal was immediately measured using a multiplate reader (Clariostar, BMG) with a gain of 2500 and a measurement interval time of 2 s. Inhibition was calculated in relation to the control, enzyme treated with vehicle (DMSO).
OriginPro 2021b (64-bit) SR2 (9.8.5.212) (OriginLab) was used to determine the inhibition and IC50 values and prepare the figures. The IC50 values were calculated from the sigmoidal fit of the log scale concentration without fixing the parameters.
The inhibitory activity of all chalcones was evaluated at a concentration of 10 µM on purified recombinant firefly luciferase, as this concentration would also be used in the reporter gene assay to determine neurogenic activity.
To obtain the IC50 values and construct a concentration-response curve, chalcones were measured in the assay using a series of decreasing concentrations, ranging from 100 µM to 13 nM and from 300 µM to 0.41 nM.

T1 sequence (P08659 whole entry): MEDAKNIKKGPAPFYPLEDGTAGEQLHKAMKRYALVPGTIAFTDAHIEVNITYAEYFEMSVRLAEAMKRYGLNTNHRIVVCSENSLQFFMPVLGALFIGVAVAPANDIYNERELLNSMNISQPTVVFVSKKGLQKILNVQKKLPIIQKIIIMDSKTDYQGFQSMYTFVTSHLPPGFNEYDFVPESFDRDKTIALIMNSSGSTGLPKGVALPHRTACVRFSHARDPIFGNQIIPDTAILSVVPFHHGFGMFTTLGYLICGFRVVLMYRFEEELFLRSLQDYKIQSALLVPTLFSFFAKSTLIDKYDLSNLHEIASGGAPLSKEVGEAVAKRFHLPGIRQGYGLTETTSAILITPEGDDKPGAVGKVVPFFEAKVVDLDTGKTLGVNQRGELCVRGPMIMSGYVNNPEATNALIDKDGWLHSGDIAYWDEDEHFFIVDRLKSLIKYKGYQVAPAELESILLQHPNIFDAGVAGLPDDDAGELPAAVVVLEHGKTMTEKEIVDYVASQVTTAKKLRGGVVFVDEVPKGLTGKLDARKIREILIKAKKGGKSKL

Row | Compound | inhibition at 10 µM [%] | Inhibition (%) of FLuc | also measured
1 | O=C(O)c1cccc(-c2noc(-c3ccccc3F)n2)c1 [Ataluren, reference compound] |  |  | IC50: 0.11 µM
2 | CC1(C)C=Cc2cc(C(=O)/C=C/c3ccc(O)cc3)ccc2O1 [Compound 2, (E)-1–(2,2dimethyl-2H-chromen-6-yl)-3–(4-hydroxyphenyl)prop-2-en-1-one] | 30 |  | Inhibition (%) of FLuc (10 µM): 32%
3 | COc1cc2c(cc1C(=O)/C=C/c1ccc(O)cc1)C=CC(C)(C)O2 [Compound 3, (E)-3–(4-hydroxyphenyl)-1–(7-methoxy-2,2-dimethyl-2H-chromen-6-yl)prop-2-en-1-one] | < 5 |  | 
4 | CC1(C)C=Cc2c(ccc(C(=O)/C=C/c3ccc(O)cc3)c2O)O1 [Compound 4, (E)-1–(5-hydroxy-2,2-dimethyl-2H-chromen-6-yl)-3–(4-hydroxyphenyl)prop-2-en-1-one] | < 10 |  | 
5 | CC1(C)C=Cc2cc(C(=O)/C=C/c3ccc(O)cc3)c(O)cc2O1 [Compound 5, (E)-1–(7-hydroxy-2,2-dimethyl-2H-chromen-6-yl)-3–(4-hydroxyphenyl)prop-2-en-1-one] | < 5 |  | 
6 | CC1(C)C=Cc2cc(C(=O)/C=C/c3ccc(O)cc3)ccc2N1 [Compound 6, (E)-1–(2,2-dimethyl-1,2-dihydroquinolin-6-yl)-3–(4-hydroxyphenyl)prop-2-en-1-one] | 18 |  | 
7 | CC1(C)C=Cc2cc(C(=O)/C=C/c3ccc(N)cc3)ccc2O1 [Compound 8, (E)-3–(4-aminophenyl)-1–(2,2-dimethyl-2H-chromen-6-yl)prop-2-en-1-one] |  | comparable to that of the hydroxyl group | 
8 | CC1(C)C=Cc2cc(C(=O)/C=C/c3ccc(Cl)cc3)ccc2O1 [Compound 12, (E)-3–(4-chlorphenyl)-1–(2,2-dimethyl-2H-chromen-6-yl)prop-2-en-1-one] |  | near-complete elimination of the inhibitory effect | 
9 | CC1(C)C=Cc2cc(C(=O)/C=C/c3ccc(C(F)(F)F)cc3)ccc2O1 [Compound 13, (E)-1–(2,2-dihmethyl-2H-chromen-6-yl)-3–(4-(trifluoromethyl)phenyl)prop-2-en-1-one] |  | near-complete elimination of the inhibitory effect | 
10 | CC1(C)C=Cc2cc(C(=O)/C=C/c3ccccc3)ccc2O1 [Compound 14, (E)-1–(2,2-dimethyl-2H-chromen-6-yl)-3-phenylprop-2-en-1-one] |  | most pronounced inhibitory effect | IC50: < 10 µM
11 | CC1(C)C=Cc2cc(C(=O)/C=C/c3cccc(O)c3O)ccc2O1 [Compound 18, (E)-3–(2,3-dihydroxyphenyl)-1–(2,2-dimethyl-2H-chromen-6-yl)prop-2-en-1-one] |  |  | IC50: < 10 µM
12 | (E)-1–(2,2-dimethyl-2H-thiochromen-6-yl)-3–(4-methoxyphenyl)prop-2-en-1-one [Compound 7] |  | less than 10% | 
13 | (E)-1–(7-hydroxy-5-methoxy-2,2-dimethyl-2H-chromen-6-yl)-3–(4-hydroxyphenyl)prop-2-en-1-one [Compound 1] |  |  | Inhibition (%) of FLuc (10 µM): no inhibition; Inhibition (%) of FLuc (listed as xanthohumol C, 10 µM): no inhibitory effect
